Experimental data taken from patent publication US10159670B2, “Methods of diagnosing and treating motor neuron diseases and other cellular stress-related diseases” (priority 2012, dated 2018).

Tested on: Ago2 and Dicer protein interactions
Experiment: Targeted mass spectrometry of Ago2-Flag / Dicer-Flag interactions in HEK293 cells under stress
Assay type: cell-based
Details: 0.5 mM, 60 min
Protocol: (FIG. 9A) The ratio of pre-miRNA to mature miRNA levels in NSC-34 cells, transfected with plasmids as indicated and in cells treated for 72 hrs with carrier alone (water, black) or with cycloheximide (CHX, 0.02 μg/ml, gray). Data normalized to control plasmid transfection. Pre-miRNAs further normalized to Gapdh (for FUS R495X, TDP-43 A315T) or to beta-actin (SOD1 G93A) and miRNA levels normalized to Snord68. Average of three independent experiments except for pre-miRNAs in the study of FUS R495X (n=2). Targeted quantitative mass spectrometry analysis of changes in the binding of Ago2 or Dicer to a set of proteins interactors under stress (FIGS. 9B-E). Immunoprecipitated Ago2-Flag (FIG. 9B) or Dicer-Flag (FIG. 9C) from HEK 293 cells, cultured under basal conditions or treated with sodium arsenite (0.5 mM, 60 min) was subjected to targeted mass-spectrometry analysis. Data is averaged from two or three different peptide standards per protein and normalized to the levels of co-immunoprecipiated peptides from untreated cells. Statistically significant result in a student t-test, between arsenite and control treatment is denoted (*p<0.05). Targeted mass spectrometry of (FIG. 9D) Dicer cofactors or (FIG. 9E) SG components, immunoprecipitated with AGO-Flag in FUS R495X-expressing HEK 293 that were further treated for 72 hrs with carrier alone or Cycloheximide (0.02 μg/ml). (FIG. 9F) The ratio of pre-miRNA to mature miRNA levels in mouse embryonic fibroblasts, pretreated for 5 hrs with HSP90 inhibitors (17-AAG, 1 μM or Geldanamycin, 1 μM) and then incubated for 36 more hours with Thapsigargin (5 nM) in combinations with the respective HSP90 inhibitor. Bars represent the average of three independent experiments. miRNA normalized to the expression levels of Snord70, and pre-miRNA normalized to Gapdh.
For mass-spectrometry, HEK293 that either stably express Ago2-FLAG (n=3 for each group) or Dicer-Flag transfected cells (48 hrs post-transfection, n=4 for each group) were untreated or stressed with 0.5 mM sodium arsenite for 60 minutes before harvest. IP was performed with the FLAG-IPT1 Kit (Sigma-Aldrich). Negative controls were HEK293 cells not containing a FLAG-construct. Samples containing the eluted proteins and the FLAG peptide were filtered using 3 kDa molecular weight cut-off spin columns (Amicon, Millipore). Buffer was exchanged to 50 mM ammonium bicarbonate (Sigma-Aldrich) in the same step. Proteins were reduced by addition of dithiothreitol (Sigma-Aldrich) to a final concentration of 5 mM and incubation for 30 minutes at 60° C., and alkylated with 10 mM iodoacetamide (Sigma-Aldrich) in the dark for 30 minutes at 21° C. The proteins were then digested using trypsin (Promega; Madison, Wis., USA) at a ratio of 1:50 (w/w trypsin/protein) for 16 hrs at 37° C. […]

O=[As]O [sodium arsenite]
Ago2 and/or Dicer protein interactions with SG components eiF2S1, eIF3, eIF5a and with PCBP1, PCBP2: increased Ago2 and/or Dicer protein interactions with SG components
increase of Ago2 phosphorylation on serine-387: more than 10 fold
interaction of HSP90 and co-chaperone p23 with Dicer: increased interaction with Dicer under stress
interactions of Ago2 with Dicer (relative to basal conditions): enhanced interactions of Ago2 with Dicer
